Article PMC3466219 (PLoS ONE, 2012)
“And” between values parts separate entries of the source, which are not always exact repeats. Equal values may be shown once. Read-outs that look alike come from different tables or passages of the source. Blank lines part the entries; values can stand above or below the molecule they belong to.

Columns and labels:
[1] = test system: acetylated histone H4K16, H3K14 and H4K8 in LNCaP cells; experiment: Western blotting of histone acetylation in LNCaP cells; conditions: Western blot
[2] = test system: Tip60 levels in LNCaP cells; type: cell-based; conditions: increasing concentrations, 24 hours, Western blot
From the text: Representative blots are shown for duplicate experiments.

[3] = molecular target: Tip60 (Homo sapiens, UniProt Q92993); experiment: In vitro HAT assay, Tip60; conditions: for inhibition at 100 µM: read-out: Tip60 % inhibition at 100 µM; for Tip60 inhibitory activity (in words): in vitro HAT assay
Chain of Tip60 (Q92993 whole entry): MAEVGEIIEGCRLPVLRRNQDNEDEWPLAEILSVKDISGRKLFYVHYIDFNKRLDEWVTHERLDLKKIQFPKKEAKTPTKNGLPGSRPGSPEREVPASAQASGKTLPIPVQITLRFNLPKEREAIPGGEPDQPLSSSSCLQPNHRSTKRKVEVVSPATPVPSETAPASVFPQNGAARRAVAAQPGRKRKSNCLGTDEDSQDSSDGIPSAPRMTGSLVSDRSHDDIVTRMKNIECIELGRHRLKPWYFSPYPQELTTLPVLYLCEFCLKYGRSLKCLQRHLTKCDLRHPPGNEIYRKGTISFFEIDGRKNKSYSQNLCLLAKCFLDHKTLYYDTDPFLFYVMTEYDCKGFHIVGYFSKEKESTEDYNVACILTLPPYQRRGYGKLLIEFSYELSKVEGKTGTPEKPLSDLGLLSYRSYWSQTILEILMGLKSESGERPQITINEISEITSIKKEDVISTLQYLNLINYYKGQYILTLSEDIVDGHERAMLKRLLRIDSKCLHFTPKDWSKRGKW

[4] = molecular target: GCN5 (Homo sapiens, UniProt Q92830); experiment: In vitro HAT assay, GCN5; type: biochemical
Chain of GCN5 (Q92830 whole entry, species assumed): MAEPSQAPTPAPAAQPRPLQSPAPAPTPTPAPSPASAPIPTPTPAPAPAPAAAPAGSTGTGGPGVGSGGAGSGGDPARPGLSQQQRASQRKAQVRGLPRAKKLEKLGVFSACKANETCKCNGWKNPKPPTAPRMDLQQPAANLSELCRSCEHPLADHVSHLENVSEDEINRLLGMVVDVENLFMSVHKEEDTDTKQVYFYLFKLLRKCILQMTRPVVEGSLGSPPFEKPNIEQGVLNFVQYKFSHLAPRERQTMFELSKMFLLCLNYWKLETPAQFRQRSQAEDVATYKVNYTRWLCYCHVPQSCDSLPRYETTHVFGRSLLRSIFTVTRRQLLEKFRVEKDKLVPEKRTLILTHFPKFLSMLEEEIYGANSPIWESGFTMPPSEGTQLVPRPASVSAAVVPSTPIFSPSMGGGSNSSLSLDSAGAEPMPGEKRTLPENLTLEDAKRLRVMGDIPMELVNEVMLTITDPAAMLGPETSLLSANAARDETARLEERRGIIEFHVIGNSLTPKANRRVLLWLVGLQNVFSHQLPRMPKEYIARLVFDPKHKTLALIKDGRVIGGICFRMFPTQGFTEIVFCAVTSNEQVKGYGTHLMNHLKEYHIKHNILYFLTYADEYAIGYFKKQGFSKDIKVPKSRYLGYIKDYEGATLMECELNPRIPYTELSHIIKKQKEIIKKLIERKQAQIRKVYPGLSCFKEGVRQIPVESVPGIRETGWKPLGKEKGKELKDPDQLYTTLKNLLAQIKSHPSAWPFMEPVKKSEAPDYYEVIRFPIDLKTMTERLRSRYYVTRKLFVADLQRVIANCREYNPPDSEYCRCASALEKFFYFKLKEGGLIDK
Experimental: (§1) Assays were performed in quadruplicate.

[5] = molecular target: T1, PCAF (Homo sapiens, UniProt Q92831); experiment: In vitro HAT assay, PCAF; type: biochemical; conditions: individual IC50 values
T1 construct: GST; made in house; host or cells: XA90 Escherichia coli
T1 sequence (Q92831 whole entry, species assumed): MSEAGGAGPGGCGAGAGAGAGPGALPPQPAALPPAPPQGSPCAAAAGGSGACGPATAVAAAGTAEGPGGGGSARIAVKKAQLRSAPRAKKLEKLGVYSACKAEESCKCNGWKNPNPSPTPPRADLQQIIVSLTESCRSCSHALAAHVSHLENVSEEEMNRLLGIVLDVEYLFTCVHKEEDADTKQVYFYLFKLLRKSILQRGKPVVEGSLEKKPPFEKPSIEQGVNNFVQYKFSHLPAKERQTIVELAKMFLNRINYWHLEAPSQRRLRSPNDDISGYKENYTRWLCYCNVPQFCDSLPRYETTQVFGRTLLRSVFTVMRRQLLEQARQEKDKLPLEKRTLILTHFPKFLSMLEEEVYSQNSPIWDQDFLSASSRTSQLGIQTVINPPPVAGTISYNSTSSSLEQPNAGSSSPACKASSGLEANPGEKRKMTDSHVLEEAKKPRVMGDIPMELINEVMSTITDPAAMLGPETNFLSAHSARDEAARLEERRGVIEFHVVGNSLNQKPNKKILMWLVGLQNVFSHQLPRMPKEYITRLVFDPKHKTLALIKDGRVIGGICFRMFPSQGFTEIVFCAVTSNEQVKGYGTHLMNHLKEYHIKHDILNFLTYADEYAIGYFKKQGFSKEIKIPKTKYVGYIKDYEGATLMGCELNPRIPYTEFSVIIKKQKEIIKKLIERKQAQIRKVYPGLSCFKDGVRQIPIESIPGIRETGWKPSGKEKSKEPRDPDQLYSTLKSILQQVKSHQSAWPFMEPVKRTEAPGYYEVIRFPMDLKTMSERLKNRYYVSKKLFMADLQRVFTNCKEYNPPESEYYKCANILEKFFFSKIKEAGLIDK
Experimental: as §1
(§2) Purification of recombinant HAT enzymes (GST-tagged)- Expression constructs, pGEX-p300 and pGEX-PCAF, obtained from Dr Andrew Bannister (Cambridge Cancer Centre, UK), were transformed into XA90 Escherichia coli cells. A single colony was selected and grown to an OD 0.5 IPTG (1 mM) induction was carried out for 4 hours then cell pellets were collected, lysed, and sonicated. Supernatants were then passed through glutathione Sepharose 4B (GE Healthcare) and purified protein was eluted with 50 mM Tris-HCl, 10 mM reduced glutathione, pH 8. Eluted fractions were tested for enzymatic activity by HAT assay.

[6] = molecular target: T2, p300 (Homo sapiens, UniProt Q09472); experiment: In vitro HAT assay, p300; type: biochemical; conditions: individual IC50 values
T2 sequence (Q09472 1287-1663 limits assumed): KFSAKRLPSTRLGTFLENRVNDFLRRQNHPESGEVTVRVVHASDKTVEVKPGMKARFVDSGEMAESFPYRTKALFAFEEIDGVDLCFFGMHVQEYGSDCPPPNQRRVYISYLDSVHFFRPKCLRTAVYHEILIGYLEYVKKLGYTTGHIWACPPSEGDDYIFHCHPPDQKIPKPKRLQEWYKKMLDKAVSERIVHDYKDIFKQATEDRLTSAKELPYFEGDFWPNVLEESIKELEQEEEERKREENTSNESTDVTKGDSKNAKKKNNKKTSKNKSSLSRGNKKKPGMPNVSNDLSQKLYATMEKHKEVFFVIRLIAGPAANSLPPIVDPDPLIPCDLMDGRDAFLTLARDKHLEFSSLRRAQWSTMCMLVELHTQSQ
Experimental: as §1, §2

Structure (SMILES): c1cc(CCc2ccncc2)ccn1 [1,2-bis(4-pyridyl)ethane]
levels of acetylated histone H4K16, H3K14 and H4K8 ([1]; increasing concentrations for 2 hours, then TSA 2 µM for a further 4 hours): did not affect | Tip60 levels [2]: unaffected

Structure (SMILES): c1ccc(SSc2ccccn2)nc1 [2,2′-Dithiodipyridine]
IC50 ([3]; Tip60 IC50, in vitro HAT assay, 3H acetyl-CoA, histones as substrates, individual IC50 values): 62 µM and 87 µM

Structure (SMILES): Cc1cnsc1SC#N [Compound 4, 4-Methyl-5-thiocyanatoisothiazole]
inhibition at 100 µM [3]: 46%

Structure (SMILES): N#CSc1ccns1 [Compound 6, 5-Thiocyanatoisothiazole]
inhibition at 100 µM [3]: 27%

Structure (SMILES): c1ccc(SSc2ccccc2)cc1 [Diphenyl disulphide]
inhibition at 100 µM [3]: 4%

Structure (SMILES): CC(/C=C/C(=O)NO)=C\[C@@H](C)C(=O)c1ccc(N(C)C)cc1 [TSA, trichostatin A]
acetylation at H4K8, H4K16 and H3K14 ([1]; TSA alone 2 µM, 6 hours): acetylation was increased

More lines, now with the values ahead:

inhibition at 100 µM [3]: 25%
Structure (SMILES): c1ccc2sc(SSc3nc4ccccc4s3)nc2c1 [2,2′-Dithio(bis)benzothiazole]

IC50 [3]: > 100 µM | Tip60 inhibitory activity (in words) [3]: inactive
Structure (SMILES): Cc1ccsc1Br [2-Bromo-3-methylthiophene]

IC50 [3]: 48 µM
Structure (SMILES): c1cc(SSc2ccncc2)ccn1 [4,4′-Dithiodipyridine]

Tip60 inhibitory activity (in words) [3]: inactive | inhibition at 100 µM [3]: 14%
Structure (SMILES): Cc1cnsc1Br [Compound 1, 4-Methyl-5-bromoisothiazole]

IC50 [4]: > 100 µM | IC50 [5]: 33 µM and 25 µM | IC50 [6]: 58 µM and 43 µM | IC50 [3]: 4 µM
Structure (SMILES): Cc1cnsc1SSc1sncc1C [Compound 5, 1,2-Bis(4-methylisothiazol-5-yl)disulfane]

inhibition at 100 µM [3]: 22%
Structure (SMILES): Cc1cnsc1 [Compound 11, 4-Methylisothiazole]
